The structures appear in SMILES notation.

52 molecules from US6573275B1, “Bicyclic amines” (Syngenta Limited, priority 1995, dated 2003) can be followed below.

This data set has as its system peach aphid (Myzus persicae). In words: Insecticidal test against peach aphid, infested Chinese cabbage leaves sprayed. It counts as in vivo. The note with it: peach aphid (Myzus persicae) on Chinese cabbage leaves, sprayed with 500 ppm composition unless otherwise stated, mortality assessed after 3 days. Here is the method: This Example illustrates the insecticidal properties of the compounds of Formula I. The activity of the compounds of Formula I was determined using a variety of pests. The pests were treated with a liquid composition containing 500 parts per million (ppm) by weight of the compound unless otherwise stated. The compositions were made by dissolving the compound in acetone and ethanol (50:50) mixture and diluting the solutions with water containing 0.05% by weight of a wetting agent sold under the trade name “SYNPERONIC” NP8 until the liquid composition contained the required concentration of the compound. “SYNPERONIC” is a Registered Trade Mark.
The test procedure adopted with regard to each pest was basically the same and comprised supporting a number of the pests on a medium which was usually a substrate, a host plant or a foodstuff on which the pests feed, and treating either or both the medium and the pests with the compositions. The mortality of the pests was then assessed at periods usually varying from two to five days after the treatment.
In this test Chinese cabbage leaves were infested with aphids, the infested leaves were sprayed with the test composition, and the mortality assessed after 3 days.
For `COC(=O)C(C)N1C2CCC1CC(C#N)(c1cncc(Cl)c1)C2` (racemic) [Compound 212], the “Score (grading of mortality)” value is “A (A indicates 80-100% mortality)”.

For the molecule `COc1ccc(C2(C#N)CC3CCC(C2)N3Cc2ccccc2)cc1` (single isomer, unassigned) [Compound 6], the “Score (grading of mortality)” value was “C (C indicates less than 40% mortality)”.

For `COc1ccc(C2(C#N)CC3CCC(C2)N3Cc2ccccc2)cc1` (single isomer, unassigned) [Compound 7], the “Score (grading of mortality)” value is reported as “C (C indicates less than 40% mortality)”.

On to `N#CC1(c2ccccc2)CC2CCC(C1)N2Cc1ccccc1` (single isomer, unassigned) [Compound 31], for which the “Score (grading of mortality)” value is reported as “C (C indicates less than 40% mortality)”.

For the molecule `N#CC1(c2ccccc2)CC2CCC(C1)N2Cc1ccccc1` (single isomer, unassigned) [Compound 32], the “Score (grading of mortality)” value is “A (A indicates 80-100% mortality)”.

In the case of `COC(=O)C(C)N1C2CCC1CC(C#N)(c1cncc(Cl)c1)C2` (single isomer, unassigned) [Compound 211], the “Score (grading of mortality)” value is on record as “A (A indicates 80-100% mortality)”.

Take `COC(=O)C(C)N1C2CCC1CC(C#N)(c1cncc(Cl)c1)C2` (single isomer, unassigned) [Compound 213]: the “Score (grading of mortality)” value is “A (A indicates 80-100% mortality)”.

Regarding `CN1C2CCC1CC(C#N)(c1cc(Cl)cc(Cl)c1)C2` (stereo not shown) [Compound 1], the “Score (grading of mortality)” value is reported as “A (A indicates 80-100% mortality)”.

Turning to `CN1C2CCC1CC(C#N)(c1cc(F)cc(F)c1)C2` (stereo not drawn) [Compound 2, exo-3-(3,5-difluorophenyl)-endo-3-cyano-8-methyl-8-azabicyclo[3.2.1]octane], the “Score (grading of mortality)” value is recorded as “A (A indicates 80-100% mortality)”.

As for `CN1C2CCC1CC(C#N)(c1cccc(F)c1F)C2` (stereo not shown) [Compound 3], the “Score (grading of mortality)” value is “A (A indicates 80-100% mortality)”.

Consider `CN1C2CCC1CC(C#N)(c1c(F)c(F)c(F)c(F)c1F)C2` (stereo not shown) [Compound 4], for which the “Score (grading of mortality)” value is reported as “A (A indicates 80-100% mortality)”.

In the case of `CN1C2CCC1CC(C#N)(c1cccc(Cl)c1Cl)C2` (stereo not shown) [Compound 5], the “Score (grading of mortality)” value was “A (A indicates 80-100% mortality)”.

With `N#CC1(c2ccccc2)CC2CCC(C1)N2Cc1ccccc1` (stereo not shown) [Compound 8, 3-phenyl-3-cyano-8-benzyl-8-azabicyclo[3.2.1]octane], the “Score (grading of mortality)” value is on record as “A (A indicates 80-100% mortality)”.

In the case of `N#CC1(c2cc(F)cc(F)c2)CC2CCC(C1)N2` (stereo not shown) [Compound 9], the “Score (grading of mortality)” value is reported as “A (A indicates 80-100% mortality)”.

For `N#CC1(c2cc(F)cc(F)c2)CC2CCC(C1)N2Cc1ccccc1` (stereo not shown) [Compound 10], the “Score (grading of mortality)” value is reported as “A (A indicates 80-100% mortality)”.

Take `N#CC1(c2cc(F)cc(F)c2)CC2CCC(C1)N2Cc1cnc(Cl)c(Cl)c1` (stereo not shown) [Compound 11]: the “Score (grading of mortality)” value is listed as “A (A indicates 80-100% mortality)”.

As for `N#CC1(c2cc(F)cc(F)c2)CC2CCC(C1)N2Cc1ccccn1` (stereo not shown) [Compound 12], the “Score (grading of mortality)” value is “A (A indicates 80-100% mortality)”.

Consider `Cc1cccc(CN2C3CCC2CC(C#N)(c2cc(F)cc(F)c2)C3)c1` (stereo not shown) [Compound 13], for which the “Score (grading of mortality)” value was “B (B indicates 40-79% mortality)”.

With `N#CC1(c2cc(F)cc(F)c2)CC2CCC(C1)N2Cc1ccc(Cl)cc1` (stereo not shown) [Compound 14], the “Score (grading of mortality)” value is recorded as “A (A indicates 80-100% mortality)”.

As for `N#CC1(c2cc(F)cc(F)c2)CC2CCC(C1)N2Cc1cccnc1` (stereo not shown) [Compound 15], the “Score (grading of mortality)” value is given as “A (A indicates 80-100% mortality)”.

On to `N#CC1(c2cc(F)cc(F)c2)CC2CCC(C1)N2Cc1cc(Cl)cc(Cl)c1` (stereo not shown) [Compound 17], for which the “Score (grading of mortality)” value is on record as “C (C indicates less than 40% mortality)”.

With `N#CC1(c2cc(F)cc(F)c2)CC2CCC(C1)N2CC=C(F)F` (stereo not shown) [Compound 18], the “Score (grading of mortality)” value is recorded as “A (A indicates 80-100% mortality)”.

As to `N#CC1(c2cc(F)cc(F)c2)CC2CCC(C1)N2CC(O)c1ccccc1` (stereo not shown) [Compound 19], the “Score (grading of mortality)” value is “C (C indicates less than 40% mortality)”.

Take `N#CC1(c2cc(F)cc(F)c2)CC2CCC(C1)N2C(CO)c1ccccc1` (stereo not shown) [Compound 20]: the “Score (grading of mortality)” value is reported as “C (C indicates less than 40% mortality)”.

In the case of `C=CCN1C2CCC1CC(C#N)(c1cc(F)cc(F)c1)C2` (stereo not shown) [Compound 21], the “Score (grading of mortality)” value was “A (A indicates 80-100% mortality)”.

`C#CCN1C2CCC1CC(C#N)(c1cc(F)cc(F)c1)C2` (stereo not shown) [Compound 22]: the “Score (grading of mortality)” value is “A (A indicates 80-100% mortality)”.

`N#CC1(c2cc(F)cc(F)c2)CC2CCC(C1)N2CCF` (stereo not shown) [Compound 23]: the “Score (grading of mortality)” value is recorded as “A (A indicates 80-100% mortality)”.

On to `N#CC1(c2cc(F)cc(F)c2)CC2CCC(C1)N2CCO` (stereo not shown) [Compound 24], for which the “Score (grading of mortality)” value is reported as “A (A indicates 80-100% mortality)”.

Regarding `COCCN1C2CCC1CC(C#N)(c1cc(F)cc(F)c1)C2` (stereo not shown) [Compound 25], the “Score (grading of mortality)” value is recorded as “A (A indicates 80-100% mortality)”.

Take `N#CCCN1C2CCC1CC(C#N)(c1cc(F)cc(F)c1)C2` (stereo not shown) [Compound 26]: the “Score (grading of mortality)” value is “B (B indicates 40-79% mortality)”.

Turning to `N#CC1(c2cc(F)cc(F)c2)CC2CCC(C1)N2Cc1ccc(Cl)s1` (stereo not shown) [Compound 27], the “Score (grading of mortality)” value was “A (A indicates 80-100% mortality)”.

For the molecule `N#CC1(c2cc(F)cc(F)c2)CC2CCC(C1)N2c1cccc(Cl)n1` (stereo not shown) [Compound 28], the “Score (grading of mortality)” value was “C (C indicates less than 40% mortality)”.

In the case of `Cc1ncc(CN2C3CCC2CC(C#N)(c2cc(F)cc(F)c2)C3)s1` (stereo not shown) [Compound 29], the “Score (grading of mortality)” value is “B (B indicates 40-79% mortality)”.

Turning to `COC(=N)CN1C2CCC1CC(C#N)(c1cc(F)cc(F)c1)C2` (stereo not shown) [Compound 30], the “Score (grading of mortality)” value is “A (A indicates 80-100% mortality)”.

Regarding `CN1C2CCC1CC(C#N)(c1cccnc1)C2` (stereo not drawn) [Compound 33, exo-3-(pyrid-3-yl)-endo-3-cyano-8-methyl-8-azabicyclo[3.2.1]octane], the “Score (grading of mortality)” value is “A (A indicates 80-100% mortality)”.

Consider `N#C[C@@]1(c2cccnc2)C[C@H]2CC[C@@H](C1)N2CCF` [Compound 34, exo-3-(pyrid-3-yl)-endo-3-cyano-8-(2-fluoroethyl)-8-azabicyclo[3.2.1]octane], for which the “Score (grading of mortality)” value is reported as “A (A indicates 80-100% mortality)”.

As to `C=CCN1C2CCC1CC(C#N)(c1cccnc1)C2` (stereo not shown) [Compound 35], the “Score (grading of mortality)” value is “A (A indicates 80-100% mortality)”.

As to `N#CC1(c2cccnc2)CC2CCC(C1)N2` (stereo not drawn) [Compound 36, exo-3-(pyrid-3-yl)-endo-3-cyano-8-azabicyclo[3.2.1]octane], the “Score (grading of mortality)” value is on record as “A (A indicates 80-100% mortality)”.

Turning to `N#CC1(c2cccnc2)CC2CCC(C1)N2Cc1ccccc1` (stereo not drawn) [Compound 37, exo-3-(pyrid-3-yl)-endo-3-cyano-8-benzyl-8-azabicyclo[3.2.1]octane], the “Score (grading of mortality)” value is recorded as “A (A indicates 80-100% mortality)”.

Consider `CCN1C2CCC1CC(C#N)(c1cccnc1)C2` (stereo not shown) [Compound 38], for which the “Score (grading of mortality)” value was “A (A indicates 80-100% mortality)”.

Regarding `CC(C)(C)OC(=O)CN1C2CCC1CC(C#N)(c1cccnc1)C2` (stereo not shown) [Compound 39], the “Score (grading of mortality)” value is given as “C (C indicates less than 40% mortality)”.

In the case of `C[n+]1cccc(C2(C#N)CC3CCC(C2)N3C(=O)OC(C)(C)C)c1.[I-]` (stereo not shown) [Compound 40], the “Score (grading of mortality)” value is “A (A indicates 80-100% mortality)”.

With `CN1C2CCC1CC(C#N)(c1ccc(Cl)nn1)C2` (stereo not drawn) [Compound 41, exo-3-(6-chloropyridazin-3-yl)-endo-3-cyano-8-methyl-8-azabicyclo[3.2.1]octane], the “Score (grading of mortality)” value is “A (A indicates 80-100% mortality)”.

For `CCCN1C2CCC1CC(C#N)(c1cccnc1)C2` (stereo not drawn) [Compound 42, exo-3-(pyrid-3-yl)-endo-3-cyano-8-(prop-1-yl)-8-azabicyclo[3.2.1]octane], the “Score (grading of mortality)” value is “A (A indicates 80-100% mortality)”.

Turning to `CN1C2CCC1CC(C#N)(c1cncc(Cl)n1)C2` (stereo not drawn) [Compound 43, exo3-(6-chloropyrazin-2-yl)-endo-3-cyano-8-methyl-8-azabicyclo[3.2.1]octane], the “Score (grading of mortality)” value is “A (A indicates 80-100% mortality)”.

Regarding `CS(=O)(=O)CS(=O)(=O)N1C2CCC1CC(C#N)(c1cccnc1)C2` (stereo not drawn) [Compound 44, exo-3-(pyrid-3-yl)-endo-3-cyano-8-(methylsulphonylmethylsulphonyl)-8-azabicyclo[3.2.1]octane], the “Score (grading of mortality)” value was “A (A indicates 80-100% mortality)”.

As to `CS(=O)(=O)N1C2CCC1CC(C#N)(c1cccnc1)C2` (stereo not shown) [Compound 45], the “Score (grading of mortality)” value is “C (C indicates less than 40% mortality)”.

Consider `CN1C2CCC1CC(C#N)(c1ccc(Cl)nc1)C2` (stereo not drawn) [Compound 46, exo-3-(6-chloropyrid-3-yl)-endo-3-cyano-8-methyl-8-azabicyclo[3.2.1]octane], for which the “Score (grading of mortality)” value is recorded as “A (A indicates 80-100% mortality)”.

`COCN1C2CCC1CC(C#N)(c1cccnc1)C2` (stereo not shown) [Compound 47]: the “Score (grading of mortality)” value is recorded as “A (A indicates 80-100% mortality)”.

For `CCOCN1C2CCC1CC(C#N)(c1cccnc1)C2` (stereo not shown) [Compound 48], the “Score (grading of mortality)” value is “A (A indicates 80-100% mortality)”.

`N#CCN1C2CCC1CC(C#N)(c1cccnc1)C2` (stereo not shown) [Compound 49]: the “Score (grading of mortality)” value is on record as “A (A indicates 80-100% mortality)”.

For the molecule `CCOC(=O)CN1C2CCC1CC(C#N)(c1cccnc1)C2` (stereo not shown) [Compound 50], the “Score (grading of mortality)” value is reported as “A (A indicates 80-100% mortality)”.
